Laboratory results reported in US11000538B2, “Composition for enhancing exercise ability or anti-fatigue comprising novel ginsenoside” (priority 2018, dated 2021).
Entries after “also recorded” stand apart in the source; their conditions may differ.

Experiments:
[1] = system: mouse-derived myocyte lines (C2C12; ATCC); experiment: Mitochondrial production in differentiated myocytes (Mitotracker Green staining, Q-PCR of mitochondrial marker genes); format: cell-based; conditions: 20 pg/ml, 24 hours
Protocol: (§1) Ginseng seed-derived ginsenosides were administered to mouse-derived myocyte lines (C2C12; ATCC) to observe changes in mitochondrial amount and fatty acid oxidation in myocytes.
(§2) The mouse-derived myocyte lines (C2C12; ATCC) were cultured using Dulbecco's Modified Eagle's Medium (DMEM; Sigma) containing […] fetal bovine serum (Hyclone) and 1% penicillin/streptomycin (Sigma). The cells were induced to be 100% confluent for differentiation into myocytes and then differentiated using a DMEM medium containing 2% horse serum (Hyclone) and 1% penicillin/streptomycin (Sigma). Medium was changed daily, with differentiation for a total of a week.
(§3) After treating the differentiated myocytes with the novel ginsenoside GS #10 of one embodiment of the present disclosure and the other ginsenosides GS #01-GS #06 isolated from the existing ginseng seed extract at a concentration of 20 pg/ml for 24 hours, respectively, the amount of mitochondria in myocytes was observed by staining with a Mitotracker Green™ (Invitrogen) reagent. mRNA expression levels of mitochondrial marker genes were measured using Q-PCR. As positive controls, a combination of GW501516 and Metformin (GW/Met; treated at 10 μM each), which are candidates for exercise mimetics and are known to improve exercise ability by activating PPARδ (Peroxisome proliferator-activated receptor delta) and AMPK (AMP-activated protein kinase), respectively, was used. The mitochondrial number measured as a result of the test is shown in FIG. 11, and the mitochondrial marker gene expression levels are shown in FIGS. 12 to 14.
(§4) The experiments were performed in the same manner as in Test Examples 1 and 2 above, respectively.
(§5) First, the C2C12 myocytes differentiated in the same manner as in Test Example 1 above were treated with ginsenosides Rg1, Rg3, and Rb1, which are comparative examples of the present disclosure, and the novel ginsenoside GS #10 of one embodiment of the present disclosure, respectively, and then mitochondria and marker genes were observed (FIGS. 21 to 25). In addition, in the same manner as in Test Example 2 above, after administration of 20 mg/kg each of ginsenosides Rg1, Rg3, Rb1, which are comparative examples of the present disclosure, and the novel ginsenoside GS #10 of one embodiment of the present disclosure for 6 weeks to the mice, the exercise ability was observed.

[2] = system: Sprague-Dawley (SD) mice; experiment: Treadmill experiment after 6 weeks of oral administration (muscle mitochondrial genes, exercise time, plasma lactate); format: in vivo; conditions: 20 mg/kg orally for 6 weeks; for expression of mitochondrial marker gene in muscle (mitochondrial activity): muscle tissue after treadmill, FIGS. 16-18; for exercise time / exercise ability on treadmill: run until exhausted, FIGS. 19, 25
Protocol: The following experiment was performed to confirm whether the exercise ability improving effect due to the increased mitochondrial production and lipid metabolism promotion of the ginseng seed-derived novel ginsenoside (GS #10) confirmed in Test Example 1 above was also shown at the actual individual level. 20 mg/kg each of the novel ginsenoside GS #10 of one embodiment of the present disclosure and the other ginsenosides GS #01-GS #06 isolated from the existing ginseng seed extract was orally administered to 39-week-old female Sprague-Dawley (SD) mice, and 10 mg/kg each thereof was orally administered to the control group GW/Met for 6 weeks. In order to improve the treadmill adaptability during the six-week experiment, mice were placed on the treadmill every two weeks to familiarize them with the use of the treadmill. After six weeks of administration, mice were placed on a treadmill to run on the treadmill. The exercise time was until the mice were exhausted and pushed down from the treadmill, and the mice which finished the exercise was immediately extracted of muscle tissue and plasma by necropsy. […] The expression patterns of mitochondrial marker genes in muscle are shown in FIGS. 16 to 18, and exercise time and plasma lactate in blood are shown in FIGS. 19 and 20.
as §4, §5

[3] = system: mouse-derived myocyte lines (C2C12; ATCC); experiment: Fatty acid oxidation in differentiated myocytes; format: cell-based; conditions: 20 pg/ml, 24 hours, FIG. 15
Protocol: as §1, §2
as §3, with “As positive controls, a combination of GW501516 and Metformin (GW/Met; treated at 10 μM each), which are candidates for exercise mimetics and are known to improve exercise ability by activating PPARδ (Peroxisome proliferator-activated receptor delta) and AMPK (AMP-activated protein kinase), respectively, was used.” left out

[4] = system: SH-SY5Y cells; experiment: Cytotoxicity, Cell Counting Kit (CCK)-8; format: cell-based; conditions: SH-SY5Y cells, 0.1, 1, 5, 10, 20 and 50 μM; FIG. 27
Protocol: The cell growth in the presence of novel ginsenoside GS #10 of one embodiment of the present disclosure was evaluated using Cell Counting Kit (CCK)-8 in order to exclude the possibility that ginsenosides may affect exercise ability enhancing efficacy through cytotoxic activity. The experimental method is as follows.
10 μl of a CCK-8 reagent was added to SH-SY5Y cells in culture (Dojindo, Md., USA) with reference to a 96-well plate and left at 37° C. for 2 hours, and then absorbance was measured at 450 nm. The cell viability was marked as a percentage (%) of the absolute optical density of each sample relative to the untreated sample. At this time, the concentration of the novel ginsenoside GS #10, which is an example of the present disclosure, contained in the medium in which the cells were cultured was 0.1, 1, 5, 10, 20, and 50 μM, respectively.

[5] = system: Balb/c mice; experiment: Anti-fatigue efficacy in sleep-deprivation fatigue model (forced swim test, plasma lactate); format: in vivo; conditions: oral, 2 weeks; GS #10 10 and 50 mg/kg, ginseng seed extract 50 mg/kg; 24 hours sleep deprivation; FIGS. 36, 37
Text: In Test Example 2 above, it was confirmed that the novel ginsenoside GS #10 of one embodiment of the present disclosure improved exercise ability and lowered plasma lactate in blood that is increased by exercise. […] Experimental methods are the same as those described in Cho et al., Biol Pharm Bull 33 (7):1128, which is incorporated herein by reference in its entirety. Balb/c mice purchased from Samtako were adapted to the age of 12 weeks and then divided into a fatigue-induced group of 32 mice and a control of 8 mice. The fatigue-induced group was divided into 4 groups again, each of 8 mice, of which is the novel ginsenoside GS #10 10 mg/kg treatment group (F/GS #10 10), 50 mg/kg treatment group (F/GS #10 50), ginseng seed extract 50 mg/kg treatment group (F/GSE #10 50), and untreated group (Fatigue). The ginseng seed extract is a comparative example of the present disclosure, and is a ginseng seed (seeds of Panax ginseng) methanol extract used in the isolation of ginsenoside in Example 1 described above herein. […] Then, while performing the FST (forced swim test) 6 minutes, the time during which the mice of each experiment group floated still on the water without swimming was measured to calculate fatigue. Thereafter, the plasma lactate in blood was measured, and the degree of accumulation of the fatigue substance was observed. […]

[6] = system: C2C12 myoblasts; experiment: Myocyte differentiation promotion (mRNA of MyoG, α-actin, myosin); format: cell-based, mouse; conditions: 10 pg/ml during 4 days of differentiation in 2% horse serum; FIGS. 29-31, 33-35
Protocol: As muscles decrease with age, supplementing muscle mass by differentiating myoblasts into myocytes is an essential process for maintaining muscle mass. […] During the differentiation period, the novel ginsenoside GS #10 of one embodiment of the present disclosure and the other ginsenosides GS #01-GS #06 isolated from the existing ginseng seed extract were treated at a concentration of 10 pg/ml, respectively. The control is differentiation medium not treated with ginsenosides. […] After 4 days of differentiation, mRNA was extracted from each treatment group using Trizol™ reagent (Thermo Fisher Scientific), and then cDNA was synthesized using a RevertAid 1st strand cDNA synthesis kit (Thermo Fisher Scientific). The expression levels of myoG, α-actin and myosin, which are muscle fiber marker genes, were observed using a temperature-cycling nucleic acid amplifier (CFX96 thermocycle, Bio-Rad).
The experiment was performed in the same manner as in Test Examples 5 and 6.

[7] = system: C2C12 myoblasts induced with chronic inflammation (IL-6); experiment: Cell growth recovery of myoblasts with IL-6-induced chronic inflammation; format: cell-based, mouse; conditions: IL-6 10 ng/ml for 4 weeks, then 10 pg/ml for 48 hours; FIGS. 28, 32
Text: Muscle cells are made from myosatellite cells present inside the muscle. They are usually in a quiescent state, and when muscle damage such as exercise is applied, they wake up and are divided to form myoblasts, and these myoblasts differentiate to form myocytes. These muscle stem cells are known to decrease in number and activity with age. In this process, the inflammatory response, especially IL-6 is involved. Therefore, it was confirmed through the following experiment whether the novel ginsenoside of the embodiment of the present disclosure can restore cell division of muscle stem cells under IL-6-mediated muscle stem cell growth inhibition conditions.
Since muscle stem cells are not available in the form of cell lines, mouse-derived muscle cell lines (C2C12, ATCC) located between muscle stem cells and myoblasts were cultured using Dulbecco's Modified Eagle's Medium (Sigma) containing 10% fetal bovine serum (Hyclone) and 1% penicillin/streptomycin (Sigma). […] Accordingly, in order to induce an inflammatory state due to aging, IL-6 (10 ng/ml) was treated for 4 weeks to induce myoblast aging. […] Myoblasts of this state were treated with the novel ginsenoside GS #10 of one embodiment of the present disclosure and the other ginsenosides GS #01-GS #06 isolated from the existing ginseng seed extract at a concentration of 10 pg/ml each for 48 hours. […]

Molecule	mitochondrial biosynthesis ability / mitochondria production (mitochondrial number; PGC1α, NRF1, tfam expression) ([1]; FIGS. 11-14, 21-24)	mitochondrial biosynthesis ability / mitochondria production (mitochondrial number; PGC1α, NRF1, tfam expression) ([1]; FIGS. 11-14, 21-24, listed as Rb1)	expression of mitochondrial marker gene in muscle (mitochondrial activity) [2]	exercise time / exercise ability on treadmill [2]	fatty acid oxidation in myocytes [3]	cytotoxicity (cell viability, % of untreated) [4]	fatigue relief (FST immobility time, plasma lactate) [5]	lactic acid concentration (plasma lactate), muscle fatigue marker ([2]; blood after treadmill, FIGS. 20, 26)	myocyte differentiation marker gene expression (MyoG, α-actin, myosin) [6]	cell growth recovery of aged myoblasts (number of cells) [7]
CC(C)=CCC[C@](C)(O[C@@H]1O[C@H](CO[C@@H]2O[C@H](CO)[C@@H](O)[C@H](O)[C@H]2O)[C@@H](O)[C@H](O)[C@H]1O)[C@H]1CC[C@]2(C)[C@@H]1[C@H](O)C[C@@H]1[C@@]3(C)CC[C@H](O[C@@H]4O[C@H](CO)[C@@H](O)[C@H](O)[C@H]4O[C@@H]4O[C@H](CO)[C@@H](O)[C@H](O)[C@H]4O)C(C)(C)[C@@H]3CC[C@]12C [GS #05, ginsenoside Rb1, reference compound]	a slight mitochondria increasing efficacy	did not increase mitochondria production	insignificant	insignificant	–	–	–	–	–	–
C[C@@H]1CC(=O)C(C)(C)C2C1C1C[C@@H](O)C3C([C@]4(C)CC[C@H](C(C)(C)O)O4)CC[C@@]3(C)[C@]1(C)C[C@@H]2O[C@H]1OC(CO)[C@H](O)C(O)C1O[C@H]1OC(CO)[C@H](O)C(O)C1O (stereo partly drawn) [GS #10, (20S,24R)-6-O-β-D-glucopyranosyl(1→2)-β-D-glucopyranoside-dammar-3-one-20,24-epoxy-6a,12b,25-triol]	the most excellent; also recorded: showed mitochondria increasing efficacy	–	significantly increased	doubled the exercise time; also recorded: significant exercise ability improvement	increased the most	did not exhibit cytotoxicity up to 50 μM	reduce the symptoms caused by fatigue in a concentration-dependent manner	the lowest pattern; also recorded: anti-fatigue effect	a significant increase in marker gene expression; also recorded: myocyte differentiation	a significant effect; also recorded: showed the effects of promoting myoblast growth
CC(C)=CCC[C@](C)(O[C@@H]1O[C@H](CO[C@@H]2OC[C@H](O)[C@H](O)[C@H]2O)[C@@H](O)[C@H](O)[C@H]1O)[C@H]1CC[C@]2(C)[C@@H]1[C@H](O)C[C@@H]1[C@@]3(C)CC[C@H](O[C@@H]4O[C@H](CO)[C@@H](O)[C@H](O)[C@H]4O[C@@H]4O[C@H](CO)[C@@H](O)[C@H](O)[C@H]4O)C(C)(C)[C@@H]3CC[C@]12C [GS #06, ginsenoside Rb2, reference compound]	a slight mitochondria increasing efficacy	–	insignificant	insignificant	–	–	–	–	–	–
ginsenoside Rg3	did not increase mitochondria production	–	–	–	–	–	–	–	–	–
CC(C)=CCC[C@](C)(O[C@@H]1O[C@H](CO)[C@@H](O)[C@H](O)[C@H]1O)[C@H]1CC[C@]2(C)[C@@H]1[C@H](O)C[C@@H]1[C@@]3(C)CC[C@H](O)C(C)(C)[C@@H]3[C@@H](O[C@@H]3O[C@H](CO)[C@@H](O)[C@H](O)[C@H]3O)C[C@]12C [Rg1, ginsenoside Rg1]	did not increase mitochondria production	–	–	–	–	–	–	–	–	–
